Key:
Experiment in all cases: relative viability (nuclei count vs DMSO), 5 days (fraction); higher = more cells survive
[1] = compound: O=C(NC1CCNCC1)c1n[nH]cc1NC(=O)c1c(Cl)cccc1Cl [AT-7519] + COc1cc2c(Oc3ccc(NC(=O)C4(C(=O)Nc5ccc(F)cc5)CC4)cc3F)ccnc2cc1OCCCN1CCOCC1 [Foretinib] (partner 0.25 µM)
How it was run: (§1)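 Lung cancer cell lines in 1536-well plates got either a single drug or a fixed anchor-drug dose together with five library-drug doses (not always all listed) in √10 steps, by pin tool, on the day after seeding. Nuclei were counted after 5 days, and relative viability is the treated-to-vehicle ratio of nuclei counts. Values are medians of duplicate plates.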

[2] = compound: C1=CC2=C(C=C(C(=C2N=C1)O)N=NC3=CC4=C(C=C3)C=C(C=C4)S(=O)(=O)O)S(=O)(=O)O + Cc1nc(Nc2ncc(C(=O)Nc3c(C)cccc3Cl)s2)cc(N2CCN(CCO)CC2)n1 [Dasatinib] (partner 0.075 µM)
How it was run: as §1

[3] = compound: C1=CC2=C(C=C(C(=C2N=C1)O)N=NC3=CC4=C(C=C3)C=C(C=C4)S(=O)(=O)O)S(=O)(=O)O + CC(C)C[C@H](NC(=O)[C@H](Cc1ccccc1)NC(=O)c1cnccn1)B(O)O [Bortezomib] (partner 0.002 µM)
How it was run: as §1

[4] = compound: O=C(NC1CCNCC1)c1n[nH]cc1NC(=O)c1c(Cl)cccc1Cl [AT-7519] + CC(=O)Nc1cccc(-n2c(=O)n(C3CC3)c(=O)c3c(Nc4ccc(I)cc4F)n(C)c(=O)c(C)c32)c1 [Trametinib] (partner 0.02 µM)
How it was run: as §1

Cell Line | relative viability ([1]; first compound 0.01 µM) | relative viability ([1]; first compound 0.03162 µM) | relative viability ([1]; first compound 0.3162 µM) | relative viability ([1]; first compound 1 µM) | relative viability ([2]; first compound 0.08 µM) | relative viability ([2]; first compound 0.253 µM) | relative viability ([2]; first compound 0.8 µM) | relative viability ([2]; first compound 2.53 µM) | relative viability ([2]; first compound 8 µM) | relative viability ([3]; first compound 0.08 µM) | relative viability ([3]; first compound 0.253 µM) | relative viability ([3]; first compound 0.8 µM) | relative viability ([3]; first compound 2.53 µM) | relative viability ([3]; first compound 8 µM) | relative viability ([4]; first compound 0.01 µM) | relative viability ([4]; first compound 0.03162 µM) | relative viability ([4]; first compound 0.3162 µM) | relative viability ([4]; first compound 1 µM)
NCI-H1975 | 0.982 | 0.953 | 0.863 | 0.189 | 0.388 | 0.356 | 0.343 | 0.4 | 0.388 | 0.389 | 0.385 | 0.377 | 0.327 | 0.42 | 0.339 | 0.311 | 0.342 | 0.165
CAL-12T | 1.17 | 1.19 | 0.814 | 0.178 | 0.325 | 0.361 | 0.383 | 0.518 | 0.434 | 0.843 | 0.914 | 0.788 | 0.979 | 1.03 | 0.403 | 0.289 | 0.217 | 0.131
NCI-H1623 | 0.86 | 0.834 | 0.997 | 0.711 | 0.465 | 0.519 | 0.575 | 0.547 | 0.251 |  |  |  |  |  |  |  |  | 
HCC-44 |  |  |  |  |  |  |  |  |  | 0.903 | 0.835 | 0.931 | 0.905 | 0.9 | 1.1 | 1.04 | 1.06 | 0.716
EKVX | 0.75 | 0.902 | 0.996 | 0.773 | 0.314 | 0.648 | 0.556 | 0.743 | 0.633 | 1.15 | 0.781 | 0.987 | 1.11 | 1.01 | 0.326 | 0.312 | 0.525 | 0.3
NCI-H1944 | 0.899 | 0.855 | 0.84 | 0.662 | 0.222 | 0.244 | 0.201 | 0.212 | 0.206 |  |  |  |  |  | 0.423 | 0.481 | 0.362 | 0.302
NCI-H1703 | 0.335 | 0.317 | 0.353 | 0.331 |  |  |  |  |  | 0.316 | 0.306 | 0.355 | 0.39 | 0.26 |  |  |  | 
Calu-6 | 0.903 | 0.917 | 0.865 | 0.641 |  |  |  |  |  | 0.982 | 1.07 | 1.05 | 1.06 | 1.02 |  |  |  | 
EBC-1 | 0.101 | 0.106 | 0.0999 | 0.0905 |  |  |  |  |  | 0.648 | 0.515 | 0.585 | 0.494 | 0.636 |  |  |  | 
NCI-H358 | 0.646 | 0.496 | 0.492 | 0.194 | 0.149 | 0.183 | 0.153 | 0.184 | 0.168 |  |  |  |  |  | 0.127 | 0.13 | 0.253 | 0.0967
IA-LM | 1.25 | 1.53 | 1.08 | 0.918 |  |  |  |  |  | 0.93 | 0.843 | 0.803 | 0.819 | 0.923 |  |  |  | 
NCI-H1793 | 0.679 | 0.646 | 0.726 | 0.488 | 0.372 | 0.403 | 0.364 | 0.367 | 0.372 |  |  |  |  |  | 0.492 | 0.489 | 0.433 | 0.218
NCI-H1792 |  |  |  |  | 0.772 | 0.669 | 0.458 | 0.84 | 0.835 | 1.09 | 0.931 | 0.886 | 0.976 | 0.908 | 0.399 | 0.4 | 0.506 | 0.225
NCI-H2342 | 1.02 | 0.972 | 0.977 | 0.965 | 0.297 | 0.307 | 0.286 | 0.308 | 0.348 |  |  |  |  |  | 0.779 | 0.784 | 0.809 | 0.817
NCI-H1299 | 1.13 | 1.06 | 1.1 | 1.15 |  |  |  |  |  | 1.06 | 0.99 | 0.999 | 1.02 | 1.03 |  |  |  | 
SW 900 | 0.792 | 0.68 | 0.858 | 0.442 | 0.596 | 0.668 | 0.619 | 0.52 | 0.743 |  |  |  |  |  | 0.986 | 0.744 | 0.659 | 0.401
SK-MES-1 | 0.907 | 1.09 | 0.735 | 0.919 | 0.43 | 0.35 | 0.353 | 0.531 | 0.477 |  |  |  |  |  | 0.535 | 0.607 | 0.537 | 0.461
NCI-H1648 |  |  |  |  |  |  |  |  |  |  |  |  |  |  | 0.39 |  | 0.366 | 0.335
NCI-H522 |  |  |  |  | 0.91 | 0.92 | 0.746 | 0.788 | 1.03 |  |  |  |  |  | 0.717 | 0.835 | 0.757 | 0.717
LK-2 | 1.04 | 1.16 |  | 0.95 | 0.357 | 0.33 | 0.204 | 0.33 | 0.239 |  |  |  |  |  | 0.643 | 0.67 | 0.716 | 0.271
NCI-H1395 | 0.991 | 1.12 | 0.961 | 0.786 | 0.386 | 0.433 | 0.45 | 0.397 | 0.43 |  |  |  |  |  | 1.16 | 1.04 | 0.799 | 0.499
A549 | 0.925 | 0.984 | 0.852 | 0.845 |  |  |  |  |  |  |  |  |  |  |  |  |  | 
NCI-H2170 | 1.09 | 1.03 | 1.04 | 0.958 | 0.636 | 0.574 | 0.659 | 0.633 | 0.55 |  |  |  |  |  | 0.994 | 0.868 | 0.91 | 0.708
NCI-H1563 | 0.846 | 0.867 | 0.948 | 0.957 | 0.455 | 0.478 | 0.492 | 0.397 | 0.418 | 0.848 | 0.952 | 0.959 | 0.857 | 0.994 |  |  |  | 
ABC-1 | 0.937 | 1.09 | 0.962 | 0.541 | 0.568 |  |  | 0.713 | 0.421 | 0.277 | 0.393 | 0.281 | 0.246 | 0.226 |  |  |  | 

Reference: the supplement of paper PMC10307832
